Data on six molecules can be found in ChEMBL document CHEMBL1121678, “Antitumor agents. 44. Bis(helenalinyl) esters and related derivatives as novel potent antileukemic agents” (1981).

Holding throughout (format): functional
The test system of test [1] is Mus musculus. As to the kind of experiment: Antileukemic activity of compound against the P-388 lymphocytic leukemic BDF1 male mice at 8(mg/kg)/day, administered intraperitoneally; 18.8/9.66 (Treated/control).
Test [2] deals with Mus musculus. As to the kind of experiment: In vivo antileukemic activity against P-388 lymphocytic leukemia in BDF1 male mice at 60 mg/kg/day intraperitoneal dose expressed as T/C.
For test [3], the system named is Mus musculus. As to the kind of experiment: Antileukemic activity of compound against the P-388 lymphocytic leukemic BDF1 male mice at 15(mg/kg)/day, administered intraperitoneally; 9/9.66 (Treated/control).
In test [4] the test system is Mus musculus. As to the kind of experiment: In vivo antileukemic activity against P-388 lymphocytic leukemia in BDF1 male mice at 2(mg/kg)/day intraperitoneal dose expressed as T/C.
For test [5], the system named is Mus musculus. The test can be described thus: Antileukemic activity of compound against the P-388 lymphocytic leukemic BDF1 male mice at 2(mg/kg)/day, administered intraperitoneally; 11.5/9.66 (Treated/control).
For test [6], the system named is Mus musculus. The test can be described thus: In vivo antileukemic activity against P-388 lymphocytic leukemia in BDF1 male mice at 8(mg/kg)/day intraperitoneal dose expressed as T/C.
Test [7] deals with Mus musculus. As to the kind of experiment: Antileukemic activity of compound against the P-388 lymphocytic leukemic BDF1 male mice at 60 mg/kg/day, administered intraperitoneally; 4.7/9.66 (Treated/control). The note with it: route intraperitoneal.
In test [8] the test system is Mus musculus. The test can be described thus: Antileukemic activity of compound against the P-388 lymphocytic leukemic BDF1 male mice at 30(mg/kg)/day, administered intraperitoneally; 7/9.66 (Treated/control).
The subject of test [9] is Mus musculus. The test can be described thus: In vivo antileukemic activity against P-388 lymphocytic leukemia in BDF1 male mice at 15(mg/kg)/day intraperitoneal dose expressed as T/C.
The test system of test [10] is Mus musculus. The test can be described thus: In vivo antileukemic activity against P-388 lymphocytic leukemia in BDF1 male mice at 30(mg/kg)/day intraperitoneal dose expressed as T/C.
Test [11] relates to Mus musculus. The test can be described thus: Antileukemic activity of compound against the P-388 lymphocytic leukemic BDF1 male mice at 4(mg/kg)/day, administered intraperitoneally; 16.5/9.66 (Treated/control).
Test [12] deals with Mus musculus. The test can be described thus: In vivo antileukemic activity against P-388 lymphocytic leukemia in BDF1 male mice at 4(mg/kg)/day intraperitoneal dose expressed as T/C.
In test [13] the test system is Mus musculus. The test can be described thus: Antileukemic activity of compound against the P-388 lymphocytic leukemic BDF1 male mice at 8(mg/kg)/day, administered intraperitoneally; 10.5/9.66 (Treated/control).
In test [14] the test system is Mus musculus. As to the kind of experiment: In vivo antileukemic activity against P-388 lymphocytic leukemia in BDF1 male mice at 25(mg/kg)/day intraperitoneal dose expressed as T/C.
For test [15], the system named is Mus musculus. As to the kind of experiment: In vivo antileukemic activity against P-388 lymphocytic leukemia in BDF1 male mice at 12.5 mg/kg/day intraperitoneal dose expressed as T/C.
In test [16] the test system is Mus musculus. The test can be described thus: In vivo antileukemic activity against P-388 lymphocytic leukemia in BDF1 male mice at 50(mg/kg)/day intraperitoneal dose expressed as T/C.
Test [17] relates to Mus musculus. The test can be described thus: Antileukemic activity of compound against the P-388 lymphocytic leukemic BDF1 male mice at 8(mg/kg)/day, administered intraperitoneally; 13.7/9.66 (Treated/control).
In test [18] the test system is Mus musculus. The test can be described thus: Antileukemic activity of compound against the P-388 lymphocytic leukemic BDF1 male mice at 2(mg/kg)/day, administered intraperitoneally; 11.2/9.66 (Treated/control).
In test [19] the test system is Mus musculus. The test can be described thus: Antileukemic activity of compound against the P-388 lymphocytic leukemic BDF1 male mice at 25(mg/kg)/day, administered intraperitoneally; 17.2/9.66 (Treated/control).
The test system of test [20] is Mus musculus. The test can be described thus: Antileukemic activity of compound against the P-388 lymphocytic leukemic BDF1 male mice at 50(mg/kg)/day, administered intraperitoneally; 13.4/9.66 (Treated/control).
In test [21] the test system is Mus musculus. The test can be described thus: Antileukemic activity of compound against the P-388 lymphocytic leukemic BDF1 male mice at 12.5 mg/kg/day, administered intraperitoneally; 16.0/9.66 (Treated/control). The settings on record: route intraperitoneal.
For test [22], the system named is Mus musculus. As to the kind of experiment: Antileukemic activity of compound against the P-388 lymphocytic leukemic BDF1 male mice at 4(mg/kg)/day, administered intraperitoneally; 10.6/9.66 (Treated/control).
Test [23] deals with Mus musculus. The test can be described thus: Antileukemic activity of compound against the P-388 lymphocytic leukemic BDF1 male mice at 8(mg/kg)/day, administered intraperitoneally; 16.7/9.66 (Treated/control).
The subject of test [24] is Mus musculus. As to the kind of experiment: Antileukemic activity of compound against the P-388 lymphocytic leukemic BDF1 male mice at 60 mg/kg/day, administered intraperitoneally; 3.8/9.66 (Treated/control). The note with it: route intraperitoneal.
For test [25], the system named is Mus musculus. The test can be described thus: Antileukemic activity of compound against the P-388 lymphocytic leukemic BDF1 male mice at 30(mg/kg)/day, administered intraperitoneally; 6.7/9.66 (Treated/control).
Test [26] concerns Mus musculus. The test can be described thus: Antileukemic activity of compound against the P-388 lymphocytic leukemic BDF1 male mice at 2(mg/kg)/day, administered intraperitoneally; 14.5/9.66 (Treated/control).
Test [27] deals with Mus musculus. The test can be described thus: Antileukemic activity of compound against the P-388 lymphocytic leukemic BDF1 male mice at 4(mg/kg)/day, administered intraperitoneally; 16.2/9.66 (Treated/control).
The subject of test [28] is Mus musculus. As to the kind of experiment: Antileukemic activity of compound against the P-388 lymphocytic leukemic BDF1 male mice at 15(mg/kg)/day, administered intraperitoneally; 9.8/9.66 (Treated/control).
For test [29], the system named is Mus musculus. As to the kind of experiment: Antileukemic activity of compound against the P-388 lymphocytic leukemic BDF1 male mice at 15(mg/kg)/day, administered intraperitoneally; 10.8/9.66 (Treated/control).
Test [30] relates to Mus musculus. As to the kind of experiment: Antileukemic activity of compound against the P-388 lymphocytic leukemic BDF1 male mice at 12(mg/kg)/day, administered intraperitoneally; 10.8/9.66 (Treated/control).
For test [31], the system named is Mus musculus. The test can be described thus: Antileukemic activity of compound against the P-388 lymphocytic leukemic BDF1 male mice at 8(mg/kg)/day, administered intraperitoneally; 11.9/9.66 (Treated/control).
Test [32] deals with Mus musculus. The test can be described thus: In vivo antileukemic activity against P-388 lymphocytic leukemia in BDF1 male mice at 12(mg/kg)/day intraperitoneal dose expressed as T/C.
Test [33] has as its system Mus musculus. As to the kind of experiment: Antileukemic activity of compound against the P-388 lymphocytic leukemic BDF1 male mice at 25(mg/kg)/day, administered intraperitoneally; 18.0/9.66 (Treated/control).

As to `C=C1C(=O)O[C@@H]2C[C@@H](C)[C@@H]3C=CC(=O)[C@@]3(C)[C@@H](OC(=O)CCCC(=O)O[C@H]3[C@@H]4C(=C)C(=O)O[C@@H]4C[C@@H](C)[C@@H]4C=CC(=O)[C@]43C)[C@H]12`, the “Average survival (days)” value in the test on Mus musculus [1] is given as 18.8; in the test on Mus musculus [3], 9; with Mus musculus [5], 11.2; in the test on Mus musculus [7], 4.7; in the test on Mus musculus [8], 7; in the test on Mus musculus [11], 16.5. Further, the T/C with Mus musculus [2] amounted to 48%; in the test with Mus musculus [4], 116%; in the test with Mus musculus [6], 195%; in the test with Mus musculus [9], 93%; in the test on Mus musculus [10] it was 72%; in the test with Mus musculus [12], 171%.

On to `CC1C(=O)O[C@@H]2C[C@@H](C)[C@@H]3CCC(=O)[C@@]3(C)[C@@H](O)[C@H]12` (stereo partly specified), for which the T/C with Mus musculus [2] is recorded as 109%. Besides, the “Average survival (days)” value in the test with Mus musculus [13] was 10.5.

Turning to `C=C1C(=O)O[C@@H]2C[C@@H](C)[C@@H]3C=CC(=O)[C@@]3(C)[C@@H](OC(=O)CCC(=O)O[C@H]3[C@@H]4C(=C)C(=O)O[C@@H]4C[C@@H](C)[C@@H]4C=CC(=O)[C@]43C)[C@H]12`, the T/C is recorded as 178% with Mus musculus [14]; 166% in the test with Mus musculus [15]; 140% in the test with Mus musculus [16]; 116% in the test with Mus musculus [4]; 168% in the test on Mus musculus [6]; 110% in the test on Mus musculus [12]. The “Average survival (days)” value amounted to 13.7 in the test with Mus musculus [17]; 11.2 in the test on Mus musculus [18]; 17.2 in the test with Mus musculus [19]; 13.4 in the test with Mus musculus [20]; 16 with Mus musculus [21]; 10.6 in the test on Mus musculus [22].

On to `C=C1C(=O)O[C@@H]2C[C@@H](C)[C@@H]3C=CC(=O)[C@@]3(C)[C@@H](OC(=O)CCCCC(=O)O[C@H]3[C@@H]4C(=C)C(=O)O[C@@H]4C[C@@H](C)[C@@H]4C=CC(=O)[C@]43C)[C@H]12`, for which the “Average survival (days)” value in the test on Mus musculus [23] stood at 16.7; in the test on Mus musculus [24], 3.8; in the test with Mus musculus [25], 6.7; in the test with Mus musculus [26], 14.5; in the test on Mus musculus [27], 16.2; with Mus musculus [28], 9.8. The T/C in the test with Mus musculus [2] stood at 40%; in the test on Mus musculus [4], 150%; with Mus musculus [6], 173%; in the test on Mus musculus [9], 101%; in the test on Mus musculus [10] it was 69%; in the test on Mus musculus [12], 167%.

Consider `C[C@@H]1C[C@H]2OC(=O)[C@@H](C)[C@H]2[C@H](OC(=O)CC(=O)O[C@H]2[C@@H]3[C@H](C)C(=O)O[C@@H]3C[C@@H](C)[C@@H]3C=CC(=O)[C@]32C)[C@]2(C)C(=O)C=C[C@@H]12`, for which the “Average survival (days)” value in the test with Mus musculus [29] was 10.8; with Mus musculus [30], 10.8; in the test with Mus musculus [31] it was 11.9. In addition, the results for the T/C with Mus musculus [6], in the test on Mus musculus [9] and in the test on Mus musculus [32] were 124%, 112% and 112%, respectively.

Turning to `O=c1[nH]cc(F)c(=O)[nH]1` [FLUOROURACIL], the T/C in the test with Mus musculus [2] is recorded as 186%. In addition, the “Average survival (days)” value with Mus musculus [33] came out at 18.
